Read-outs that look alike come from different tables or passages of the source.

What is called EC50 is the concentration that produces a half-maximal response.

One experiment addresses T1, FPR1 (Homo sapiens, UniProt P21462).
T1 construct: expressed in transfected cells; host or cells: HEK-Gqi5 (HEK cells with chimeric G protein Gqi5)
T1 sequence (P21462 1-350): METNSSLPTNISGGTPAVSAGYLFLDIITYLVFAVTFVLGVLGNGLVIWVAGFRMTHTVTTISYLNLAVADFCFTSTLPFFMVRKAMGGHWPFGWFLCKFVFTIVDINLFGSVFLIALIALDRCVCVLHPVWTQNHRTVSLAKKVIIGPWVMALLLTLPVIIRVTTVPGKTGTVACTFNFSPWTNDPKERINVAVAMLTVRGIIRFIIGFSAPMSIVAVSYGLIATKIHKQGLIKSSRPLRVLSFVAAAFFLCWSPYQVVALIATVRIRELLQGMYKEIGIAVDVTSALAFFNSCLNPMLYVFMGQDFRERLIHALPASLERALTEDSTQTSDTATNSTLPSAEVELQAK
The experiment in a line: compound-induced calcium activity on FLIPR Tetra in HEK-Gqi5 cells stable expressing FPR1. It is filed as cell-based. On the set-up: FPR1 (rel. eff.): scale not given here. The note with it: for FPR1 (rel. eff.): relative efficacy. The protocol:
(§1) CHO-Gal6 cells stably expressing FPRL1 were cultured in (F12, 10% FBS, 1% PSA, 400 μg/ml geneticin and 50 μg/ml hygromycin) and HEK-Gqi5 cells stable expressing FPR1 were cultured in (DMEM high glucose, 10% FBS, 1% PSA, 400 μg/ml geneticin and 50 μg/ml hygromycin). In general, the day before the experiment, 18,000 cells/well were plated in a 384-well clear bottom poly-d-lysine coated plate. The following day the screening compound-induced calcium activity was assayed on the FLIPR^Tetra. The drug plates were prepared in 384-well microplates using the EP3 and the MultiPROBE robotic liquid handling systems. Compounds were tested at concentrations ranging from 0.61 to 10,000 nM. Results are expressed as EC50 (nM) and efficacy values.

The target in another experiment is T2, FPRL1 (Homo sapiens, UniProt P25090).
T2 construct: expressed in transfected cells; host or cells: CHO-Gal6 (CHO cells with G alpha 16)
T2 sequence (P25090 1-351): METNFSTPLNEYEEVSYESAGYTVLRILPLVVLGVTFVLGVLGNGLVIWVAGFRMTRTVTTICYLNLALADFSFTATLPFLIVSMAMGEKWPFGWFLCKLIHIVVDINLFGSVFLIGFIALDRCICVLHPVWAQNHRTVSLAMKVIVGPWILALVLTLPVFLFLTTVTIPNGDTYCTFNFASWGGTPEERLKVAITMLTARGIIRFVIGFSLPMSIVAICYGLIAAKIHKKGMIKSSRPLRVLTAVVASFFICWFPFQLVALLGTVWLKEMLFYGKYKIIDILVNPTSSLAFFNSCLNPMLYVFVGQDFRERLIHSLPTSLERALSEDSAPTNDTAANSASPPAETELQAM
The experiment in a line: compound-induced calcium activity on FLIPR Tetra in CHO-Gal6 cells stably expressing FPRL1. It is filed as cell-based. The note with it: for FPRL1 (rel. eff.): relative efficacy. The protocol:
as §1

The mark [1] stands for this setting: class symbol NA, read-out: FPR1 EC50 (NA = Not Active).
[2] abbreviates: calcium, FLIPR Tetra, tested 0.61 to 10,000 nM, read-out: FPRL1 EC50.
[3] abbreviates: calcium, FLIPR Tetra, tested 0.61 to 10,000 nM, read-out: FPR1 EC50.

For `O=C(O)C1C(C(=O)Nc2ccc(Br)cc2)C2CCC1C21CC1` (racemic) [Compound 10A], the EC50 on FPR1 (setting [1]) is over 10000 nM; at FPRL1 (setting [2]), 278 nM. Further, the “FPRL1 (rel. eff.)” value at FPRL1 (calcium, FLIPR Tetra) is given as 0.82.
Turning to `CC1(C)[C@@H]2CC[C@H]1[C@@H](C(=O)Nc1ccc(Br)cc1)[C@H]2C(=O)O` (racemic) [Compound 13, (+/−)-(1R,2S,3R,4S)-3-(4-Bromophenylcarbamoyl)-7,7-dimethylbicyclo[2.2.1]heptane-2-carboxylic Acid], the concentration for a half-maximal effect (EC50) on FPR1 (setting [3]) turned out to be 639 nM. Also, the “FPR1 (rel. eff.)” value on FPR1 (calcium, FLIPR Tetra) is on record as 0.33. The “FPRL1 (rel. eff.)” value on FPRL1 (calcium, FLIPR Tetra) came out at 0.85.
As for `CC1(C)[C@@H]2CC[C@H]1[C@@H](C(=O)Nc1ccc(Cl)cc1)[C@H]2C(=O)O` (racemic) [Compound 14, (+/−)-(1R,2S,3R,4S)-3-(4-Chlorophenylcarbamoyl)-7,7-dimethylbicyclo[2.2.1]heptane-2-carboxylic Acid], the EC50 was over 10000 nM at FPR1 (setting [1]) and 36 nM at FPRL1 (setting [2]). The “FPRL1 (rel. eff.)” value on FPRL1 (calcium, FLIPR Tetra) is 0.86.
For `CCOC(=O)C1C(C(=O)Nc2ccc(I)cc2)C2C=CC1C21CC1` (racemic) [Compound 17, Ethyl(+/−)-(1S,4R,5S,6R)-6-(4-Iodophenylcarbamoyl)spiro[bicyclo[2.2.1]hept[2]ene-7,1′-cyclopropane]-5-carboxylate] the same measures were over 10000 nM, 243 nM and 0.76.
The corresponding values for `CC(C)OC(=O)C1C(C(=O)Nc2ccc(I)cc2)C2C=CC1C21CC1` (racemic) [Compound 18, Iso-propyl(+/−)-(1S,4R,5S,6R)-6-(4-Iodophenylcarbamoyl)spiro[bicyclo[2.2.1]hept[2]ene-7,1′-cyclopropane]-5-carboxylate] are over 10000 nM, 187 nM and 0.72.
On to `CC(C)=C1[C@H]2C=C[C@@H]1[C@H](C(=O)O)[C@@H]2C(=O)Nc1ccc(Br)cc1` (racemic) [Compound 20, (+/−)-(1S,4R,5S,6R)-6-(4-Bromophenylcarbamoyl) [bicyclo[2.2.1]hept[2]ene-7-propan-2-ylidene]-5-carboxylic Acid], for which the figures for the EC50 at FPR1 (setting [1]) and on FPRL1 (setting [2]) were over 10000 nM and 30 nM, respectively. Further, the “FPRL1 (rel. eff.)” value on FPRL1 (calcium, FLIPR Tetra) was 0.96.
Consider `CC(C)=C1[C@H]2C=C[C@@H]1[C@@H](C(=O)O)[C@H]2C(=O)Nc1ccc(Br)cc1` (racemic) [Compound 21, (+/−)-(1S,4R,5R,6S)-6-(4-Bromophenylcarbamoyl)[bicyclo[2.2.1]hept[2]ene-7-propan-2-ylidene]-5-carboxylic Acid], for which the “FPR1 (rel. eff.)” value on FPR1 (calcium, FLIPR Tetra) is 50. The EC50 at FPRL1 (setting [2]) is 461 nM. Moreover, the “FPRL1 (rel. eff.)” value on FPRL1 (calcium, FLIPR Tetra) is reported as 0.77.
With `CC(C)=C1C2CCC1C(C(=O)Nc1ccc(Br)cc1)C2C(=O)O` (racemic) [Compound 24, (+/−)-(1S,2R,3S,4S)-3-(4-Bromophenylcarbamoyl)[bicyclo[2.2.1]heptane-7-propan-2-ylidene]-2-carboxylic Acid], the EC50 on FPR1 (setting [3]) was found to be 8300 nM; at FPRL1 (setting [2]), 164 nM. Moreover, at FPRL1 (calcium, FLIPR Tetra), the “FPRL1 (rel. eff.)” value is listed as 0.89.
With `O=C(O)C1C(C(=O)Nc2ccc(Br)cn2)C2C=CC1C21CC1` (racemic) [Compound 25, (+/−)-(1S,4R,5S,6R)-6-(5-Bromo-2-pyridylcarbamoyl)spiro[bicyclo[2.2.1]hept[2]ene-7,1′-cyclopropane]-5-carboxylic Acid], the EC50 on FPR1 (setting [1]) was over 10000 nM; on FPRL1 (setting [2]), 149 nM. In addition, the “FPRL1 (rel. eff.)” value on FPRL1 (calcium, FLIPR Tetra) amounted to 0.74.
The corresponding values for `O=C(O)C1C(C(=O)Nc2ccc(-c3ccccc3)cc2)C2C=CC1C21CC1` (racemic) [Compound 26, (+/−)-(1R,4S,5R,6S)-5-([1,1′-Biphenyl]-4-ylcarbamoyl)spiro[bicyclo[2.2.1]hept[2]ene-7,1′-cyclopropane]-6-carboxylic Acid] are over 10000 nM, 2360 nM and 0.69.
The corresponding values for `O=C(O)C1C(C(=O)Nc2cccc(C(F)(F)F)c2)C2C=CC1C21CC1` (racemic) [Compound 27, (+/−)-(1S,4R,5S,6R)-6-β3-(Trifluoromethyl)phenyl)carbamoyl)spiro[bicyclo-[2.2.1]hept[2]ene-7,1′-cyclopropane]-5-carboxylic Acid] are over 10000 nM, 2770 nM and 0.72.
For `O=C(O)C1C(C(=O)Nc2ccc(Cl)c(Cl)c2)C2C=CC1C21CC1` (racemic) [Compound 28, (+/−)-(1S,4R,5S,6R)-6-((3,4-Dichlorophenyl)carbamoyl)spiro[bicyclo[2.2.1]hept[2]-ene-7,1′-cyclopropane]-5-carboxylic Acid] the same measures were over 10000 nM, 616 nM and 0.70.
On to `O=C(O)[C@@H]1[C@H](C(=O)Nc2ccc3c(c2)oc2ccccc23)[C@@H]2CC[C@H]1C21CC1` (racemic) [Compound 31, (+/−)-(1S,4R,5S,6R)-6-(dibenzo[b,d]furan-3-ylcarbamoyl)spiro[bicyclo[2.2.1]-heptane-7,1′-cyclopropane]-5-carboxylic acid], for which the figures for the concentration giving a half-maximal response (EC50) on FPR1 (setting [1]) and at FPRL1 (setting [2]) were over 10000 nM and 2260 nM, respectively. On FPRL1 (calcium, FLIPR Tetra), the “FPRL1 (rel. eff.)” value worked out at 0.9.
For `CC(=O)c1ccc(NC(=O)C2C(C(=O)O)C3C=CC2C32CC2)cc1` (racemic) [Compound 32, (+/−)-(1R,4S,5R,6S)-5-((4-Acetylphenyl)carbamoyl)spiro[bicyclo[2.2.1]hept[2]ene-7,1′-cyclopropane]-6-carboxylic Acid] the same measures were over 10000 nM, 277 nM and 0.96.
With `O=C(O)C1C(C(=O)Nc2ccc(O)cc2)C2C=CC1C21CC1` (racemic) [Compound 33, (+/−)-(1S,4R,5S,6R)-6-((4-Hydroxyphenyl)carbamoyl)spiro[bicyclo[2.2.1]hept[2]ene-7,1′-cyclopropane]-5-carboxylic Acid], the EC50 on FPR1 (setting [1]) is over 10000 nM; at FPRL1 (class symbol NA, read-out: FPRL1 EC50 (NA = Not Active)), over 10000 nM.
Consider `O=C(O)C1C(C(=O)Nc2ccc(OC(F)(F)F)cc2)C2C=CC1C21CC1` (racemic) [Compound 34, (+/−)-(1S,4R,5S,6R)-6-β4-(Trifluoromethoxy)phenyl)carbamoyl)spiro[bicyclo-[2.2.1]hept[2]ene-7,1′-cyclopropane]-5-carboxylic Acid], for which the concentration for a half-maximal effect (EC50) on FPR1 (setting [1]) was over 10000 nM; on FPRL1 (setting [2]) it was 585 nM. For the same compound, the “FPRL1 (rel. eff.)” value at FPRL1 (calcium, FLIPR Tetra) amounted to 0.96.
As for `CSc1ccc(NC(=O)C2C(C(=O)O)C3C=CC2C32CC2)cc1` (racemic) [Compound 35, (+/−)-(1S,4R,5S,6R)-6-((4-(Methylthio)phenyl)carbamoyl)spiro[bicyclo-[2.2.1]hept[2]ene-7,1′-cyclopropane]-5-carboxylic Acid], the concentration giving a half-maximal response (EC50) at FPR1 (setting [1]) was over 10000 nM; at FPRL1 (setting [2]), 14 nM. Moreover, the “FPRL1 (rel. eff.)” value at FPRL1 (calcium, FLIPR Tetra) is 0.85.
Consider `CCc1ccc(NC(=O)C2C(C(=O)O)C3C=CC2C32CC2)cc1` (racemic) [Compound 36, (+/−)-(1S,4R,5S,6R)-6-((4-Ethylphenyl)carbamoyl)spiro[bicyclo[2.2.1]hept[2]ene-7,1′-cyclopropane]-5-carboxylic Acid], for which the concentration for a half-maximal effect (EC50) is over 10000 nM at FPR1 (setting [1]) and 59 nM on FPRL1 (setting [2]). For the same compound, on FPRL1 (calcium, FLIPR Tetra), the “FPRL1 (rel. eff.)” value worked out at 0.91.

For the origin of these results see US8618163B2, “Derivatives of cycloalkyl- and cycloalkenyl-1,2-dicarboxylic acid compounds having formyl peptide receptor like-1 (FPRL-1) agonist or antagonist activity” (Allergan, Inc., priority 2010, dated 2013).
